Here are results for two compounds from US20100022475A1, “NOVEL TRIAZOLOPYRIMIDINE DERIVATIVES” (priority 2004, published 2010).

In series [1] the test system is Alternaria solani. Put plainly: Alternaria solani / tomato / preventive. The note with it: 200 ppm, spray, tomato plants cv. Roter Gnom, assessed 4 days after inoculation. The class given is in vivo.
The test system of series [2] is Magnaporthe grisea (Pyricularia oryzae). The class given is in vivo. As to conditions: 200 ppm, spray, rice plants cv. Koshihikari, preventive, assessed 6 days after inoculation.
Series [3] relates to Puccinia recondita. Briefly: Puccinia recondita / wheat / preventive (brown rust). The note with it: 200 ppm, spray, wheat plants cv. Arina, assessed 11 days after inoculation. Type of series: in vivo.
Series [4] concerns Septoria tritici. Put plainly: Septoria tritici / wheat / preventive (Septoria leaf spot). The class given is in vivo. The note with it: 200 ppm, spray, wheat plants cv. Riband, assessed 16-18 days after inoculation.
The test system of series [5] is Botrytis cinerea. Briefly: Botrytis cinerea / tomato / preventive. Type of series: in vivo. The note with it: 200 ppm, spray, tomato plants cv. Roter Gnom, assessed 3 days after inoculation.
Series [6] relates to Pyrenophora teres (Helminthosporium teres). Put plainly: Pyrenophora teres (Helminthosporium teres) / barley / preventive (net blotch). The note with it: 200 ppm, spray, barley plants cv. Regina, assessed 4 days after inoculation. Type of series: in vivo.

Take `C[Si]1(CNc2c(-c3c(F)cc(F)cc3F)c(Cl)nc3ncnn23)CCCC1` [I.d.081, [5-chloro-6-(2,4,6-trifluoro-phenyl)-[1,2,4]triazolo[1,5-a]pyrimidin-7-yl]-(1-methyl-silolan-1-ylmethyl)-amine]: the melting point is 138 to 139 °C. The compound also returned an inhibits fungal infestation in series [1] of no less than 80%. The compound also showed an inhibits fungal infestation in series [2] of no less than 80%. The compound also registered an inhibits fungal infestation in series [3] of no less than 80%. In series [4], this compound yielded an inhibits fungal infestation of no less than 80%. For the same compound, in series [5], the inhibits fungal infestation is no less than 80%. Besides, the inhibits fungal infestation in series [6] is given as no less than 80%.

`C[Si]1(CNc2c(-c3c(F)cc(F)cc3F)c(Cl)nc3ncnn23)CCCCC1` [I.o.081, [5-chloro-6-(2,4,6-trifluoro-phenyl)-[1,2,4]triazolo[1,5-a]pyrimidin-7-yl]-(1-methyl-silinan-1-ylmethyl)-amine] registered a melting point of 150 to 152 °C.

The melting point is the temperature of the solid-liquid transition.
